Source: article PMC9145144, “Virtual Screening and Hit Selection of Natural Compounds as Acetylcholinesterase Inhibitors” (Molecules, 2022)
≈ marks a conversion by molar mass, not a printed value. Where “and” joins values, the source holds several entries; their conditions need not be identical. Identical values can stand only once. Entries after “also recorded” stand apart in the source; their conditions may differ. Like-named read-outs stand apart in the source and are kept apart here.

Columns and labels:
[1] = ABTS radical scavenging activity; settings: for ABTS (%) radical scavenging activity: absorbance at 734 nm after 7 min, triplicate, means ± SD, BHT 1 mM in MeOH, na = not active; for antioxidant activity (in words): ABTS radical scavenging
Method: […] (ABTS), potassium persulphate, and butylhydroxy toluol (BHT) were purchased from Sigma-Aldrich. For ABTS assay, the procedure followed the method of Grochowski et al. with some modifications. The stock solutions included 7 mM ABTS solution and 2.4 mM potassium persulphate solution. The working solution was then prepared by mixing the two stock solutions in equal quantities and allowing them to react for 14 h at room temperature in the dark. […] A fresh ABTS solution was prepared for each assay. […] of each com-pound (125 μL) was allowed to react with 1850 μL of the ABTS solution, and the absorbance was taken at 734 nm after 7 min. The control contains 125 μL methanol and 1850 μL of the ABTS solution. All determinations were performed in triplicate (n = 3). The results were expressed as % ABTS activity, using the following equation: % ABTS radical scavenging activity = ((Acontrol − Asample)/Acontrol) × 100, where Acontrol is the absorbance of the control, while Asample is the absorbance of the sample. Butylhydroxytoluene (BHT) (1 mM in MeOH) was used as a positive control.

[2] = target: acetylcholinesterase from Electrophorus electricus (Electrophorus electricus, UniProt O42275); assay: biochemical; assay type: biochemical; settings: for IC50: triplicate, means ± SD, na = not active
AChE = settings: cited from earlier work
BChE = settings: cited from earlier work
[3] = parameters: method as in doi:10.1016/j.phytol.2015.03.012; settings: cited from earlier work
NMDA receptor = NMDA receptor antagonists; cited from earlier work
[4] = Ellman's method, read-out: IC50

Sequence of acetylcholinesterase from Electrophorus electricus (O42275 24-633): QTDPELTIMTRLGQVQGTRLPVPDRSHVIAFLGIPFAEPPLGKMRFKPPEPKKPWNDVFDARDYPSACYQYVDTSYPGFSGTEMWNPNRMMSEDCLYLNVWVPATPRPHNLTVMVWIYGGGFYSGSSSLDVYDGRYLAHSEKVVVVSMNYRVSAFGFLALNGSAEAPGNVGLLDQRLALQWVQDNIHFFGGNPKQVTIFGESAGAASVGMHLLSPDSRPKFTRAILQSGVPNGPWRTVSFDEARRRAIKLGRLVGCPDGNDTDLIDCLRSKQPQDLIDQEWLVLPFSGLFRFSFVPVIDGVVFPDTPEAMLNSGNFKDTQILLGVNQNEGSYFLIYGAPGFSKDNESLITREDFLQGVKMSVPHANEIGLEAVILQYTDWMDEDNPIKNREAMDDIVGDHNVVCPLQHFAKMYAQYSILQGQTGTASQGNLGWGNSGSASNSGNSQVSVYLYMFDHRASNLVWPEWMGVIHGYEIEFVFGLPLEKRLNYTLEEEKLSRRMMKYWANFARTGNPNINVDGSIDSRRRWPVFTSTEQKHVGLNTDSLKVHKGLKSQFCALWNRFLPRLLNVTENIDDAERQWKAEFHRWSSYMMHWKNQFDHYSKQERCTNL

Compound | ABTS (%) radical scavenging activity [1] | AChE inhibitory activity (in words) ([2]; Ellman's method) | IC50 [2, 4] | further results
Cc1cc(C(C)(C)C)c(O)c(C(C)(C)C)c1 [BHT, butylhydroxytoluene, reference compound] | 92.38% and 92.38 ± 0.21% | – | – | –
O=C(Cn1ccc2ccc(F)cc21)NC[C@@H]1CCCN2CCCC[C@H]12 [Compound 9, N-{[(1S,9aR)-octahydro-1H-quinolizin-1-yl]methyl}-2-(6-fluoro-1H-indol-1-yl)acetamide] | 6.43% and 6.43 ± 0.85% | micro- to low millimolar range | 1 to 2 mM and 1.8 mM | –
CC(=O)Nc1ccc(N[C@@H]2OC(=O)c3c2c2ccccc2n3C)cc1 [Compound 16, (R)-N-(4-((4-methyl-3-oxo-3,4-dihydro-1H-furo [3,4-b]indol-1-yl)amino)phenyl)acetamide] | 95.82% and 95.82 ± 0.21% | no AChE activity | – | antioxidant activity (in words) [1]: higher than that of the positive control
O=C1C2CCCN2C(=O)c2ccccc2N1CCc1ccccc1 (centres unmarked) [Compound 17] | – | – | > 10 mM | –
Cc1ccc(NC(=O)C[C@H]2NCCc3c([nH]c4ccccc34)C2=O)cc1 [Compound 21, N-(4-methylphenyl)-2-{5-oxo-1H,2H,3H,4H,5H,6H-azepino [4,5-b]indol-4-yl} acetamide] | 34.68% and 34.68 ± 1.27% | micro- to low millimolar range | 1 to 2 mM and 1.2 mM | –
O=C(/C=C/c1ccccc1)N1C[C@@H]2C[C@H](C1)c1cccc(=O)n1C2 [Compound 22, (1S,9R)-11-[(2E)-3-phenylprop-2-enoyl]-7,11-diazatricyc lotrideca-2,4-dien-6-one] | – | micromolar range; also recorded: micro- to low millimolar range | – | IC50 ([2]; IC50, Ellman's method): 0.39 ± 0.16 mM
CC1CCc2c([nH]c3ccccc23)C2(N1)C(=O)Nc1ccccc12 (centres unmarked) [Compound 28, 3-methyl-1′,2′,3,4,5,10-hexahydro-2H-spiro[azepino [3,4-b]indole-1,3′-indol]-2′-one] | 80.94% and 70.55 ± 0.85% | micromolar range; also recorded: micro- to low millimolar range | 0.62 ± 0.14 mM | antioxidant activity (in words) [1]: high antioxidant activity
C=CCN1C(=O)C2(NCCc3c2[nH]c2ccc(C)cc32)c2ccccc21 (centres unmarked) [Compound 29, 6′-methyl-1-(prop-2-en-1-yl)-1,2,2′,3′,4′,9′-hexahydrospiro[indole-3,1′-pyrido [3,4-b]indol]-2-one] | 70.55% and 80.94% and 80.94 ± 0.94% | micro- to low millimolar range | > 5 mM and 5.7 mM | antioxidant activity (in words) [1]: high antioxidant activity
O=c1cccc2n1C[C@@H]1CNC[C@H]2C1 [Cytisine] | – | – | – | inhibition of AChE (in words) (AChE): does not inhibit; inhibition of BChE (in words) (BChE): does not inhibit
O=C1O[C@H]([C@@H](O)CO)C(O)=C1O [ascorbic acid] | – | – | – | IC50 scavenging activity in the ABTS model [3]: 105.90 µg/mL (≈ 601 µM)
CC[C@H]1C[C@@H]2CN3CCc4c([nH]c5ccccc45)[C@](C(=O)OC)(C2)[C@H]13 [coronaridine] | – | – | – | Ki (NMDA receptor): 0.0062 mM
Ibogaine | – | – | – | Ki (NMDA receptor): 0.0011 mM
